# Experimental data published in patent publication US20260144788A1, “COMPOUND FOR SHP2 PROTEIN DEGRADATION AND MEDICAL USES THEREOF” (UBIX THERAPEUTICS, INC., priority 2022, published 2026).
# Biological target: T1, SHP2 protein (Homo sapiens, UniProt Q06124)
# T1 sequence (Q06124 1-593): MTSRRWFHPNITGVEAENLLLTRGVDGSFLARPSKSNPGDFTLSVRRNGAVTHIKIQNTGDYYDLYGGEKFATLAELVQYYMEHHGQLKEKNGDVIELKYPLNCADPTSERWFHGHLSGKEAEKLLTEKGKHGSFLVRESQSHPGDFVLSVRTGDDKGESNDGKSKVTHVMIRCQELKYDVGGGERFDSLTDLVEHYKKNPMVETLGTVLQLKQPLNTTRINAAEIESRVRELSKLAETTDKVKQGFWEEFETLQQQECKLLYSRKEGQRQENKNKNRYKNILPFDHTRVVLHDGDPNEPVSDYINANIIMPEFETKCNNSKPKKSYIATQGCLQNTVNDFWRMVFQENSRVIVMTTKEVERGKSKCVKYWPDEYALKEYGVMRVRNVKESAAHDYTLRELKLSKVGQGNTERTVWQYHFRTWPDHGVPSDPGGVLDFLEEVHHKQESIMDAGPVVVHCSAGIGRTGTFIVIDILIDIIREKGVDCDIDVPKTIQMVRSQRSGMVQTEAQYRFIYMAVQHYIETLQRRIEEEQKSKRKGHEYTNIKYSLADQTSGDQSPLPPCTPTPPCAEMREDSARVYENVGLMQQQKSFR
# Test: Measurement of SHP2 protein degradation in MV-4-11 cells (western blotting)
# Assay type: cell-based
# Parameters: endogenous in cells
# Settings: harvested after 24 hours
# How it was run: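 MV-4-11 cells in IMDM/5% FBS were exposed to compound at final 0.01, 0.1, 1 μM or 0.001, 0.01, 0.1 μM for 24 h, DMSO as negative control. BCA-normalised lysates were immunoblotted for SHP2 with GAPDH as loading control, read on LI-COR Odyssey.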
SHP2% degradation (0.01 μM) [%],SHP2% degradation (0.1 μM) [%],Compound
55.8,98.6,"Cc1ncsc1-c1ccc(CNC(=O)[C@@H]2C[C@@H](O)CN2C(=O)[C@@H](NC(=O)C2(F)CC2)C(C)(C)C)c(OCCC2CCN(C(=O)C3CCN(c4nccc(Sc5cnc(N6CCC(C)(CN)CC6)cn5)c4Cl)CC3)CC2)c1 [Example 56, (2S,4R)—N-(2-(2-(1-(1-(4-((5-(4-(aminomethyl)-4-methylpiperidin-1-yl)pyrazin-2-yl)thio)-3-chloropyridin-2-yl)piperidine-4-carbonyl)piperidin-4-yl)ethoxy)-4-(4-methylthiazol-5-yl)benzyl)-1-((S)-2-(1-fluorocyclopropane-1-carboxamido)-3,3-dimethylbutanoyl)-4-hydroxypyrrolidine-2-carboxamide]"
80.3,99.3,"Cc1ncsc1-c1ccc(CNC(=O)[C@@H]2C[C@@H](O)CN2C(=O)[C@@H](NC(=O)C2(F)CC2)C(C)(C)C)c(OC2CCN(C(=O)[C@H]3C[C@H](Nc4nccc(Sc5cnc(N6CCC(C)(CN)CC6)cn5)c4Cl)C3)CC2)c1 [Example 61, (2S,4R)—N-(2-((1-((1r,3S)-3-((4-((5-(4-(aminomethyl)-4-methylpiperidin-1-yl)pyrazin-2-yl)thio)-3-chloropyridin-2-yl)amino)cyclobutanecarbonyl)piperidin-4-yl)oxy)-4-(4-methylthiazol-5-yl)benzyl)-1-((S)-2-(1-fluorocyclopropane-1-carboxamido)-3,3-dimethylbutanoyl)-4-hydroxypyrrolidine-2-carboxamide]"
97.7,99.5,"CC(=O)N[C@H](C(=O)N1C[C@H](O)C[C@H]1C(=O)NCc1ccc(-c2scnc2C)cc1O[C@H]1CC[C@H](C(=O)N2CC(Nc3nccc(Sc4cnc(N5CCC(C)(CN)CC5)cn4)c3Cl)C2)CC1)C(C)(C)C [Example 38, (2S,4R)-1-((S)-2-acetamido-3,3-dimethylbutanoyl)-N-(2-(((1R,4S)-4-(3-((4-((5-(4-(aminomethyl)-4-methylpiperidin-1-yl)pyrazin-2-yl)thio)-3-chloropyridin-2-yl)amino)azetidine-1-carbonyl)cyclohexyl)oxy)-4-(4-methylthiazol-5-yl)benzyl)-4-hydroxypyrrolidine-2-carboxamide]"
20.5,91.9,"Cc1ncsc1-c1ccc(CNC(=O)[C@@H]2C[C@@H](O)CN2C(=O)[C@@H](NC(=O)C2(F)CC2)C(C)(C)C)c(OCCN2CCC(C(=O)N3CCN(c4nccc(Sc5cnc(N6CCC(C)(CN)CC6)cn5)c4Cl)CC3)CC2)c1 [Example 52, (2S,4R)—N-(2-(2-(4-(4-(4-((5-(4-(aminomethyl)-4-methylpiperidin-1-yl)pyrazin-2-yl)thio)-3-chloropyridin-2-yl)piperazine-1-carbonyl)piperidin-1-yl)ethoxy)-4-(4-methylthiazol-5-yl)benzyl)-1-((S)-2-(1-fluorocyclopropane-1-carboxamido)-3,3-dimethylbutanoyl)-4-hydroxypyrrolidine-2-carboxamide]"
10.1,55.4,"Cc1ncsc1-c1ccc(CNC(=O)[C@@H]2C[C@@H](O)CN2C(=O)[C@@H](NC(=O)C2(F)CC2)C(C)(C)C)c(OC2CCN(C[C@H]3CC[C@H](Nc4nccc(Sc5cnc(N6CCC(C)(CN)CC6)cn5)c4Cl)CC3)CC2)c1 [Example 7, (2S,4R)—N-(2-((1-(((1R,4S)-4-((4-((5-(4-(aminomethyl)-4-methylpiperidin-1-yl)pyrazin-2-yl)thio)-3-chloropyridin-2-yl)amino)cyclohexyl)methyl)piperidin-4-yl)oxy)-4-(4-methylthiazol-5-yl)benzyl)-1-((S)-2-(1-fluorocyclopropane-1-carboxamido)-3,3-dimethylbutanoyl)-4-hydroxypyrrolidine-2-carboxamide]"
52.3,96.1,"Cc1ncsc1-c1ccc(CNC(=O)[C@@H]2C[C@@H](O)CN2C(=O)[C@@H](NC(=O)C2(F)CC2)C(C)(C)C)c(O[C@H]2CC[C@H](C(=O)N3CCN(c4nccc(Sc5cnc(N6CCC(C)(CN)CC6)cn5)c4Cl)CC3)CC2)c1 [Example 26, (2S,4R)—N-(2-(((1R,4S)-4-(4-(4-((5-(4-(aminomethyl)-4-methylpiperidin-1-yl)pyrazin-2-yl)thio)-3-chloropyridin-2-yl)piperazine-1-carbonyl)cyclohexyl)oxy)-4-(4-methylthiazol-5-yl)benzyl)-1-((S)-2-(1-fluorocyclopropane-1-carboxamido)-3,3-dimethylbutanoyl)-4-hydroxypyrrolidine-2-carboxamide]"
11.7,81.9,"Cc1ncsc1-c1ccc(CNC(=O)[C@@H]2C[C@@H](O)CN2C(=O)[C@@H](NC(=O)C2(F)CC2)C(C)(C)C)c(OCCN2CCN(CC3CCN(c4nccc(Sc5cnc(N6CCC(C)(CN)CC6)cn5)c4Cl)CC3)CC2)c1 [Example 8, (2S,4R)—N-(2-(2-(4-((1-(4-((5-(4-(aminomethyl)-4-methylpiperidin-1-yl)pyrazin-2-yl)thio)-3-chloropyridin-2-yl)piperidin-4-yl)methyl)piperazin-1-yl)ethoxy)-4-(4-methylthiazol-5-yl)benzyl)-1-((S)-2-(1-fluorocyclopropane-1-carboxamido)-3,3-dimethylbutanoyl)-4-hydroxypyrrolidine-2-carboxamide]"
93.8,99.5,"Cc1ncsc1-c1ccc(CNC(=O)[C@@H]2C[C@@H](O)CN2C(=O)[C@@H](NC(=O)C2(F)CC2)C(C)(C)C)c(O[C@H]2CC[C@H](C(=O)N3CC(Nc4cccc(Sc5cnc(N6CCC7(CC6)CO[C@@H](C)[C@H]7N)cn5)c4Cl)C3)CC2)c1 [Example 13, (2S,4R)—N-(2-(((1R,4S)-4-(3-((3-((5-((3S,4S)-4-amino-3-methyl-2-oxa-8-azaspiro[4.5]decan-8-yl)pyrazin-2-yl)thio)-2-chlorophenyl)amino)azetidine-1-carbonyl)cyclohexyl)oxy)-4-(4-methylthiazol-5-yl)benzyl)-1-((S)-2-(1-fluorocyclopropane-1-carboxamido)-3,3-dimethylbutanoyl)-4-hydroxypyrrolidine-2-carboxamide]"
81.5,99.3,"Cc1ncsc1-c1ccc(CNC(=O)[C@@H]2C[C@@H](O)CN2C(=O)[C@@H](NC(=O)C2(F)CC2)C(C)(C)C)c(OC2CCN(C(=O)[C@H]3C[C@@H](Nc4nccc(Sc5cnc(N6CCC(C)(N)CC6)cn5)c4Cl)C3)CC2)c1 [Example 60, (2S,4R)—N-(2-((1-((1S,3R)-3-((4-((5-(4-amino-4-methylpiperidin-1-yl)pyrazin-2-yl)thio)-3-chloropyridin-2-yl)amino)cyclobutanecarbonyl)piperidin-4-yl)oxy)-4-(4-methylthiazol-5-yl)benzyl)-1-((S)-2-(1-fluorocyclopropane-1-carboxamido)-3,3-dimethylbutanoyl)-4-hydroxypyrrolidine-2-carboxamide]"
98.2,99.,"CC(=O)N[C@H](C(=O)N1C[C@H](O)C[C@H]1C(=O)NCc1ccc(-c2scnc2C)cc1O[C@H]1CC[C@H](C(=O)N2CCC(Nc3nccc(Sc4cnc(N5CCC(C)(CN)CC5)cn4)c3Cl)CC2)CC1)C(C)(C)C [Example 41, (2S,4R)-1-((S)-2-acetamido-3,3-dimethylbutanoyl)-N-(2-(((1R,4S)-4-(4-((4-((5-(4-(aminomethyl)-4-methylpiperidin-1-yl)pyrazin-2-yl)thio)-3-chloropyridin-2-yl)amino)piperidine-1-carbonyl)cyclohexyl)oxy)-4-(4-methylthiazol-5-yl)benzyl)-4-hydroxypyrrolidine-2-carboxamide]"
75.6,98.9,"Cc1ncsc1-c1ccc(CNC(=O)[C@@H]2C[C@@H](O)CN2C(=O)[C@@H](NC(=O)C2(F)CC2)C(C)(C)C)c(OC2CCN(C(=O)[C@H]3CC[C@H](Nc4nccc(Sc5cnc(N6CCC(C)(CN)CC6)cn5)c4Cl)CC3)CC2)c1 [Example 62, (2S,4R)—N-(2-((1-((1R,4S)-4-((4-((5-(4-(aminomethyl)-4-methylpiperidin-1-yl)pyrazin-2-yl)thio)-3-chloropyridin-2-yl)amino)cyclohexanecarbonyl)piperidin-4-yl)oxy)-4-(4-methylthiazol-5-yl)benzyl)-1-((S)-2-(1-fluorocyclopropane-1-carboxamido)-3,3-dimethylbutanoyl)-4-hydroxypyrrolidine-2-carboxamide]"

Compound,SHP2% degradation (0.01 μM) [%],SHP2% degradation (0.1 μM) [%]
"Cc1ncsc1-c1ccc(CNC(=O)[C@@H]2C[C@@H](O)CN2C(=O)[C@@H](NC(=O)C2(F)CC2)C(C)(C)C)c(OCCN2CCN(C(=O)CNc3cccc(Sc4cnc(N5CCC(C)(CN)CC5)cn4)c3Cl)CC2)c1 [Example 4, (2S,4R)—N-(2-(2-(4-((3-((5-(4-(aminomethyl)-4-methylpiperidin-1-yl)pyrazin-2-yl)thio)-2-chlorophenyl)glycyl)piperazin-1-yl)ethoxy)-4-(4-methylthiazol-5-yl)benzyl)-1-((S)-2-(1-fluorocyclopropane-1-carboxamido)-3,3-dimethylbutanoyl)-4-hydroxypyrrolidine-2-carboxamide]",42.9,95.6
